Entries after “also recorded” stand apart in the source; their conditions may differ. Read-outs that look alike come from different tables or passages of the source.

The test system of data set [1] is IFN-α response against the HCV replicon. The data set is classed as cell-based, human. The settings on record: for viral RNA levels versus cells treated with IFN-α alone: 5 μM lactacystin or 1 μM epoxomicin 1 h before IFN-α for 6 h, both time points; for IFN response against HCV when inhibitor is added after induction: IFN-α for 10 h, then inhibitor for 12 h; for reduction of HCV RNA levels by IFN-α in the presence of proteasome inhibitor: inhibitor 1 h before IFN-α 100 IU/ml for 6 h, then 12 h.

Data set [2] deals with HCV subgenomic replicons. The data set is classed as cell-based.
Data set [3] deals with HCV subgenomic replicons. The data set is classed as cell-based. The source holds these as a separate data set.
For a further data set, the system named is Mx-1 gene. The data set is classed as cell-based, human. The settings on record: GS4.1 cells, with IFN-α.
Another data set concerns IFN-β gene. The data set is classed as cell-based, human. The settings on record: for expression of IFN-β: IFN-α alone.
For the next data set, the system named is Kunjin virus replicons. The data set is classed as cell-based. To be noted: KUNCD20 cells, 0.01 to 160 IU of IFN-α/ml, 72 h.
For a further data set, the system named is KUNCD20 cells. In words: Cell death in IFN-α-treated KUNCD20 cells, light microscopy or annexin V staining. The data set is classed as cell-based, Homo sapiens (human). The source says:
To address this problem, the IFN response against HCV in SL1 cells was compared with that against the flavivirus Kunjin virus in HeLa cells. For this purpose a pool of HeLa cells, KUNCD20, expressing Kunjin virus subgenomic replicons lacking the structural genes, similar to the HCV subgenomic replicons was established (Khromykh, A. A., and E. G. Westaway. 1997. J. Virol. 71:1497-1505). The Kunjin virus RNA levels in these cells were approximately fivefold higher than those observed with HCV in SL1 cells. […] Importantly, cell death in IFN-α-treated KUNCD20 cells was not detected either by light microscopy or annexin V staining (results not shown).

A further data set relates to SL1 cells. The data set is classed as cell-based, Homo sapiens (human).
A further data set concerns HCV. The settings on record: HCV genotypes 2 and 3; cited from earlier work.
The subject of the next data set is eIF-2α. The data set is classed as cell-based, human. To be noted: Huh7, GS4.1, HeLa, SL1 cells; 100 IU of IFN-α/ml 12 h; poly(I:C) transfection 3 h.

As to `Nc1ncc2[nH]cnc2n1` [2-AP, 2-aminopurine], the “inhibition of the IFN-α response against HCV replicon” value (“inhibition of the IFN-α response” for short) in [1] (GS4.1 (Huh7) cells) was “did not block the IFN response against HCV; also recorded: no measurable effect on the IFN response against the HCV replicon”. Further, in the data set with HeLa cells (HeLa cells, treatment for more than 12 h), the apoptosis result is on record as “induced apoptosis”.
For the compound `C[C@@]1(O)[C@H](O)[C@@H](CO)O[C@H]1n1cnc2c(N)ncnc21` [2CMA, 2′-C-methyladenosine], the “viral RNA (vRNA), anti-HCV activity” value with HCV subgenomic replicons [2] (GS4.1 (Huh7) cells, 10 μM, harvested at 6, 12, 24, 48, 72 hours) is reported as “effectively inhibits HCV”; in the data set with HCV subgenomic replicons [3] (SL1 (HeLa) cells, 10 μM, harvested at 6, 12, 24, 48, 72 hours), “effectively inhibits HCV”.
Regarding `Nc1nc(=O)n([C@@H]2O[C@H](CO)[C@@H](O)[C@H]2O)cc1O` [5-OH-cytidine], the “HCV RNA band intensity, antiviral activity” value with HCV subgenomic replicons [2] (GS4.1 (Huh7) cells, indicated amounts, 72 hours) was “effectively inhibits HCV replication”; in the data set with HCV subgenomic replicons [3] (SL1 (HeLa) cells, indicated amounts, 72 hours), “effectively inhibits HCV replication”.
As to `C[C@@H]1C[C@@H]([C@H](O)CC2CC(=O)NC(=O)C2)C(=O)[C@@H](C)C1` [Cycloheximide], in data set [1] (GS4.1 (Huh7) cells), the “inhibition of the IFN-α response” value is reported as “decline of viral RNA levels was reduced”.
Take `CC[C@H](C)[C@H](NC(=O)[C@H]([C@@H](C)CC)N(C)C(C)=O)C(=O)N[C@H](C(=O)N[C@@H](CC(C)C)C(=O)[C@@]1(C)CO1)[C@@H](C)O` [Epoxomicin]: in the data set with Mx-1 gene, the “induction of IFN-induced Mx-1 (Mx-A) mRNA” value (shortened to “induction … (Mx-A) mRNA”) is on record as “did not inhibit induction of Mx-A”. In data set [1] (GS4.1 cells), the “viral RNA levels versus cells treated with IFN-α alone” value was “significantly higher”, the “IFN response against HCV when inhibitor is added after induction” value is given as “the IFN response against HCV remained effective” and the “reduction of HCV RNA levels by IFN-α in the presence of proteasome inhibitor” value came out at 30%.
`O=c1c(-c2ccc(O)cc2)coc2cc(O)cc(O)c12` [Genistein, genistein]: the “induction … (Mx-A) mRNA” value in the data set with Mx-1 gene is on record as “suppressed the induction of the IFN-induced Mx-1 gene”. In addition, the “inhibition of the IFN-α response” value in data set [1] (GS4.1 (Huh7) cells) is listed as “antagonized the IFN-α response against the HCV replicon”. The “inhibition of the IFN response against HCV at increased drug concentration” value in data set [1] (GS4.1 cells, concentration raised from 100 to 300 μM) is reported as “complete inhibition of the IFN response against HCV”.
For the compound `CC(=O)N[C@@H](CSC(=O)[C@]1([C@@H](O)C(C)C)NC(=O)[C@H](C)[C@@H]1O)C(=O)O` [Lactacystin, lactacystin], in the data set on Mx-1 gene, the “induction … (Mx-A) mRNA” value is “did not inhibit induction of Mx-A”. Moreover, in [1] (GS4.1 cells), the “viral RNA levels versus cells treated with IFN-α alone” value is “significantly higher”, the “IFN response against HCV when inhibitor is added after induction” value was “the IFN response against HCV remained effective” and the “reduction of HCV RNA levels by IFN-α in the presence of proteasome inhibitor” value is reported as 30%. Also, the “HCV RNA levels, drug alone” value with HCV subgenomic replicons [2] (GS4.1 cells, higher doses, without IFN-α) is “slight reduction of HCV RNA levels”.
On to `C[S+]([O-])c1ccc(-c2nc(-c3ccncc3)c(-c3ccc(F)cc3)[nH]2)cc1` (stereo not shown) [SB 203580], for which the “inhibition of the IFN-α response” value in [1] (GS4.1 (Huh7) cells) is “did not inhibit the IFN response at detectable levels”.
Take `O=C([O-])c1ccccc1O.[Na+]` [Sodium salicylate, sodium salicylate]: the “inhibition of the IFN-α response” value in [1] is on record as “did not inhibit the IFN response at detectable levels”.
With IFN-α, the results for the “expression of IFN-β” value in the data set with IFN-β gene (HeLa cells) and in the data set on IFN-β gene (SL1 cells) were “not in HeLa cells” and “could be induced”, respectively. Moreover, the “Kunjin virus replicon RNA, inhibition of viral replication” value with Kunjin virus replicons was “only slightly inhibited viral replication”. For the same compound, the cell death entry in the data set with KUNCD20 cells is listed as “not detected”; with SL1 cells (SL1 and other HeLa derived cell lines, more than 30 IU of IFN-α/ml, between 6 and 20 h post treatment), “induced cell death in a significant fraction of cells”. For the same compound, the “fraction of apoptotic cells (annexin V-FITC positive)” value in the data set on SL1 cells (SL1 cells, 100 IU of IFN-α/ml, 24 h, flow cytometry) is given as “more than 30%”. For the same compound, the “drop of HCV RNA levels” value with HCV subgenomic replicons [2] (GS4.1 cells, IFN-α 100 IU/ml for 6 h, within 18 h) amounted to 70%. For the same compound, the “apoptosis after IFN-α treatment” value in the data set on HeLa cells (normal HeLa cells) is “did not undergo apoptosis”. In the data set on HCV, the “response to IFN-α therapy” value is no more than 80%. Also, the eIF-2α-P levels entry with eIF-2α was “did not induce eIF-2α-P levels”. The “IC50 of IFN-α (reduction of virus replication)” value with HCV subgenomic replicons [3] (HeLa cell lines such as SL1, 72 h) is reported as roughly 0.1 IU/ml. In the data set with HCV subgenomic replicons [3] (HeLa vs Huh7-derived cell lines), the “fold lower IC50 in HeLa cell lines than in Huh7-derived cell lines” value was “approximately 10 fold”.
ZVAD-fluoromethyl ketone [ZVAD-FMK]: the “prevention of IFN-α-induced cell death (apoptosis)” value in the data set on SL1 cells (SL1 cells, 100 IU of IFN-α/ml with 20 μM ZVAD-FMK) is recorded as “could be prevented”.
Turning to poly(I:C), the IFN-β transcription result in the data set on IFN-β gene (HeLa and SL1 cells, poly(I:C) alone) was “induced”. The “induction of IFN-β mRNA” value in the data set with IFN-β gene (Huh7, GS4.1 and other Huh7-derived cells, primed with IFN-α then transfected with poly(I:C)) is “only a weak induction of IFN-β was observed”. The eIF-2α-P levels entry in the data set on eIF-2α was “augmented eIF-2α-P levels”.

(Values after US7416840B2, “Replication of hepatitis C virus in non-hepatic epithelial and mouse hepatic cells” (priority 2002, dated 2008).)
